The source of these data is patent US4740233A, “Substituted 1,2,4-triazolo[1,5-a]-pyrimidine-2-sulfonamides and compositions and methods of controlling undesired vegetation and suppressing the nitrification of ammonium nitrogen in soil” (The Dow Chemical Company, priority 1986, dated 1988).

For assay [1], the system named is barnyardgrass. Nature of the assay: Control of aquatic plant species (paddy water). It is filed as in vivo, Echinochloa crusgalli. The note with it: Echinochloa crus-galli, 216 h, nine days, read-out: Percent control. How it is done: (§1) In testing for such utility, the plant species to be tested were transplanted into 16 oz. containers into about 2 inches of soil when they were in the 1-2 inch stage and then flooded to a depth of about 1 inch. An acetone concentrate of the chemical to be tested was then injected into the paddy water, the volume injected being varied as desired to provide the desired concentration. Percent control was evaluated nine days after application.

The subject of assay [2] is yellow nutsedge. Nature of the assay: Control of aquatic plant species (paddy water). Conditions: Cyperus, 216 h, nine days, read-out: Percent control. It is filed as in vivo, Cyperus esculentus. As to the method: as §1
Assay [3] deals with nitrification of ammonium nitrogen. Nature of the assay: Suppression of nitrification of ammonium nitrogen in soil. Conditions: 27° C. The method, boiled down: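 Value is % NH4-N remaining after a two-week, 27° C incubation of treated soil held at 1/3 bar tension moisture. Nitrate was measured with an ion-selective electrode after extraction with ammonium sulfate solution and 10 min shaking.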

Another assay relates to sprangletop. In words: Control of aquatic plant species (paddy water). It is filed as in vivo, Leptochloa filiformis. Conditions: Leptochloa filiformis, 216 h, nine days, read-out: Percent control. As to the method: as §1
Assay [4] has as its system rice. In words: Control of aquatic plant species (paddy water). Format: in vivo, Oryza sativa. The note with it: Oryza sativa, 216 h, nine days, read-out: Percent control. As to the method: as §1
Another assay deals with yellow foxtail. In words: Postemergent control of plant species. Format: in vivo, Setaria lutescens. The note with it: Setaria, post-emergence, 336 h, read-out: percent postemergent control. How it is done:
(§2) In representative operations, each compound to be utilized in a series of tests is dissolved in acetone to one-half of the final volume (twice the final concentration) to be used and the acetone solution in each case is admixed with an equal volume of water containing 0.1 percent by weight of surface active material. The compositions, generally in the nature of an emulsion, were employed to spray separate respective plant species which had been grown to a 2-4 leaf stage in soil of good nutrient content in a greenhouse. The various beds were positioned side by side and exposed to substantially identical conditions of temperature and light. Each bed was maintained so as to prevent any interaction with test compounds in different seed beds. Other plants were left untreated to serve as controls. After treatment, the plants were maintained for about two weeks under greenhouse conditions conducive for good plant growth and watered as necessary. Control refers to the reduction in growth compared to the observed results of the same untreated species.

The next assay has as its system pigweed. In words: Postemergent control of plant species. Format: in vivo, Amaranthus spp. The note with it: Amaranthus retroflexus, post-emergence, 336 h, read-out: percent postemergent control. How it is done:
as §2

The subject of another assay is sorghum. In words: Postemergent control of plant species. Format: in vivo, Sorghum vulgare. The note with it: Sorghum, post-emergence, 336 h, read-out: percent postemergent control. As to the method:
as §2

For another assay, the system named is rape. In words: Postemergent control of plant species. It is filed as in vivo, Brassica napus. The note with it: Brassica napus, post-emergence, 336 h, read-out: percent postemergent control. As to the method: as §2
A further assay has as its system jimsonweed. Nature of the assay: Postemergent control of plant species. The note with it: Datura stramonium, post-emergence, 336 h, read-out: percent postemergent control. Format: in vivo, Datura stramonium. How it is done:
as §2

In the next assay the test system is annual morning glory. In words: Postemergent control of plant species. Format: in vivo, Ipomoea spp. Conditions: Ipomoea, post-emergence, 336 h, read-out: percent postemergent control. As to the method:
as §2

Assay [5] relates to rice. Nature of the assay: Postemergent control of plant species. Format: in vivo, Oryza sativa. The note with it: Oryza sativa, post-emergence, 336 h, read-out: percent postemergent control. How it is done: as §2
Another assay has as its system velvetleaf. In words: Postemergent control of plant species. Format: in vivo, Abutilon theophrasti. Conditions: Abutilon theophrasti, post-emergence, 336 h, read-out: percent postemergent control. As to the method:
as §2

The next assay has as its system soybean. In words: Postemergent control of plant species. Format: in vivo, Glycine max. The note with it: Glycine max, post-emergence, 336 h, read-out: percent postemergent control. How it is done:
as §2

A further assay relates to sugar beet. Nature of the assay: Postemergent control of plant species. Format: in vivo, Beta saccharifera. The note with it: Beta vulgaris, post-emergence, 336 h, read-out: percent postemergent control. As to the method:
as §2

The test system of another assay is crabgrass. In words: Postemergent control of plant species. It is filed as in vivo, Digitaria spp. The note with it: Digitaria sanguinalis, post-emergence, 336 h, read-out: percent postemergent control. How it is done: as §2
In assay [6] the test system is barnyardgrass. Nature of the assay: Postemergent control of plant species. Conditions: Echinochloa crus-galli, post-emergence, 336 h, read-out: percent postemergent control. It is filed as in vivo, Echinochloa crusgalli. How it is done:
as §2

The test system of a further assay is corn. Nature of the assay: Postemergent control of plant species. It is filed as in vivo, Zea mays. The note with it: Zea mays, post-emergence, 336 h, read-out: percent postemergent control. How it is done: as §2
The test system of another assay is johnson grass. In words: Postemergent control of plant species. Format: in vivo, Sorghum halepense. The note with it: Sorghum halepense, post-emergence, 336 h, read-out: percent postemergent control. How it is done:
as §2

The subject of another assay is wild oats. In words: Postemergent control of plant species. Format: in vivo, Avena fatua. Conditions: Avena fatua, post-emergence, 336 h, read-out: percent postemergent control. How it is done:
as §2

A further assay relates to wheat. In words: Postemergent control of plant species. The note with it: Triticum aestivum, post-emergence, 336 h, read-out: percent postemergent control. It is filed as in vivo, Triticum aestivum. How it is done: as §2
Assay [7] concerns yellow nutsedge. Nature of the assay: Postemergent control of plant species. Format: in vivo, Cyperus esculentus. The note with it: Cyperus, post-emergence, 336 h, read-out: percent postemergent control. As to the method:
as §2

For the next assay, the system named is cotton. In words: Postemergent control of plant species. Conditions: Gossypium hirsutum, post-emergence, 336 h, read-out: percent postemergent control. Format: in vivo, Gossypium spp. As to the method:
as §2

SMILES strings stand for the structures.

Turning to `Cc1cc(C)n2nc(S(=O)(=O)Nc3ccccc3S(=O)(=O)N(C)C)nc2n1` [Compound 15], the pest or weed control at 4000 g/ha in the assay on barnyardgrass [1] (4.0 Kg/Ha) is 25%; with yellow nutsedge [2] (4.0 Kg/Ha) it was 70%; with sprangletop (4.0 Kg/Ha), 0%; with rice [4] (4.0 Kg/Ha) it was 35%. The “% NH4-N Remaining After 2 Weeks Incubation” value in assay [3] (0.06 ppm) came out at 1%; in [3] (0.125 ppm) it was 0%; in assay [3] (0.25 ppm), 23%; in [3] (0.5 ppm), 42%; in [3] (1 ppm), 54%.

As for `Cc1cc(C)n2nc(S(=O)(=O)Nc3c(F)cccc3Cl)nc2n1` [Compound 54], the pest or weed control at 500 g/ha is 97% in the assay on barnyardgrass [1] (0.5 Kg/Ha), 95% with yellow nutsedge [2] (0.5 Kg/Ha), 0% in the assay with sprangletop (0.5 Kg/Ha) and 97% in the assay with rice [4] (0.5 Kg/Ha). Also, the “% NH4-N Remaining After 2 Weeks Incubation” value in assay [3] (0.06 ppm) worked out at 20%; in assay [3] (0.25 ppm), 51%; in assay [3] (1 ppm) it was 66%; in assay [3] (4 ppm), 76%.

In the case of `Cc1cc(C)n2nc(S(=O)(=O)N(Cc3ccccc3)c3c(Cl)cccc3Cl)nc2n1` [Compound 265], the pest or weed control at 500 ppm with yellow foxtail amounted to 0%; in the assay with pigweed, 70%; with jimsonweed, 0%; in the assay on annual morning glory, 60%; in the assay with velvetleaf it was 0%; with crabgrass, 0%. Further, the pest or weed control at 500 ppm with barnyardgrass [6], in the assay on johnson grass, with wild oats and with yellow nutsedge [7] was 0% throughout. The plant injury at 500 ppm in the assay on sorghum was 0%; in the assay on rape, 60%; in the assay with rice [5] it was 0%; with soybean it was 40%; with sugar beet, 80%; with corn, 0%. Moreover, the plant injury at 500 ppm in the assay with wheat and in the assay on cotton was 0% in each case. Moreover, the “% NH4-N Remaining After 2 Weeks Incubation” value in assay [3] (0.06 ppm) is 0%; in assay [3] (0.25 ppm), 0%; in assay [3] (1 ppm) it was 0%; in [3] (4 ppm) it was 17%.

For `O=S(=O)(Nc1c(Cl)cccc1Cl)c1nc2ncc(Cl)cn2n1` [Compound 114], the pest or weed control at 250 g/ha with barnyardgrass [1] (0.25 Kg/Ha) was 80%; in the assay on yellow nutsedge [2] (0.25 Kg/Ha) it was 65%; in the assay with sprangletop (0.25 Kg/Ha), 0%; in the assay with rice [4] (0.25 Kg/Ha) it was 0%. Further, the pest or weed control at 1000 g/ha worked out at 95% in the assay with barnyardgrass [1] (1.0 Kg/Ha), 90% with yellow nutsedge [2] (1.0 Kg/Ha), 0% in the assay on sprangletop (1.0 Kg/Ha) and 70% in the assay on rice [4] (1.0 Kg/Ha).

In the case of `Cc1cc(C)n2nc(S(=O)(=O)N(C)c3c(Cl)cccc3Cl)nc2n1` [Compound 260, 5,7,N-trimethyl-N-(2,6-dichlorophenyl)-1,2,4-triazolo[1,5-a]pyrimidine-2-sulfonamide], the pest or weed control at 500 ppm with yellow foxtail stood at 90%; in the assay with pigweed it was 45%; with jimsonweed it was 95%; in the assay on annual morning glory it was 40%; with velvetleaf, 90%; with crabgrass, 0%. Besides, the pest or weed control at 500 ppm in the assay with barnyardgrass [6] was determined as 50%; in the assay with johnson grass it was 95%; with wild oats, 0%; with yellow nutsedge [7], 0%. Also, the plant injury at 500 ppm came out at 25% in the assay on sorghum; 95% with rape; 0% in the assay with rice [5]; 90% in the assay with soybean; 100% with sugar beet; 0% in the assay with corn. Moreover, the plant injury at 500 ppm in the assay with wheat is 0%; with cotton, 80%. Also, the “% NH4-N Remaining After 2 Weeks Incubation” value in [3] (0.06 ppm) was found to be 0%; in assay [3] (0.25 ppm), 14%; in assay [3] (1 ppm), 37%; in assay [3] (4 ppm) it was 45%.

Regarding `C=CCN(c1c(Cl)cccc1Cl)S(=O)(=O)c1nc2nc(C)cc(C)n2n1` [Compound 263], the pest or weed control at 500 ppm was 95% with yellow foxtail; 90% in the assay with pigweed; 80% in the assay on jimsonweed; 80% in the assay on annual morning glory; 40% in the assay with velvetleaf; 90% in the assay with crabgrass. For the same compound, the pest or weed control at 500 ppm with barnyardgrass [6] was found to be 40%; in the assay on johnson grass, 100%; in the assay with wild oats it was 0%; in the assay with yellow nutsedge [7] it was 0%. Besides, the plant injury at 500 ppm in the assay on sorghum came out at 70%; in the assay with rape, 100%; in the assay on rice [5], 85%; with soybean, 0%; with sugar beet it was 100%; in the assay on corn it was 0%. The plant injury at 500 ppm in the assay with wheat came out at 0%; with cotton, 50%. The “% NH4-N Remaining After 2 Weeks Incubation” value is reported as 0% in assay [3] (0.06 ppm), 0% in [3] (0.25 ppm), 87% in assay [3] (1 ppm) and 11% in [3] (4 ppm).
